The text below walks through data of PMC10946732.

Each structure is given as a SMILES string. Read-outs that look alike come from different tables or passages of the source.

A short description of data set [1]: Two-component stapling: SNAr of two Cys thiolates (C-S bonds) on para-C-F of 5,10,15,20-tetrakis(pentafluorophenyl)porphyrin (2), 1 equiv; Cs2CO3 8 equiv, TCEP 4 equiv, N2. The settings on record: the molecule shown is the open-chain precursor, DMSO (dry), 3.3 mM, 25.0 °C, 2.0 h.
For data set [2] the following is noted: the molecule shown is the open-chain precursor; 42-membered ring.

As to `CC[C@H](C)[C@H](NC(=O)[C@H](CCCCN)NC(=O)CNC(=O)[C@H](CC(C)C)NC(=O)[C@H](CC(C)C)NC(=O)[C@H](Cc1ccc(O)cc1)NC(=O)CNC(=O)[C@H](C)N)C(=O)N[C@@H](CC(N)=O)C(=O)N[C@@H](CC(C)C)C(=O)N[C@@H](CCCCN)C(=O)N[C@@H](C)C(=O)N[C@@H](CSc1c(F)c(F)c(-c2c3nc(c(-c4c(F)c(F)c(F)c(F)c4F)c4ccc([nH]4)c(-c4c(F)c(F)c(F)c(F)c4F)c4nc(c(-c5c(F)c(F)c(F)c(F)c5F)c5ccc2[nH]5)C=C4)C=C3)c(F)c1F)C(=O)N[C@@H](C)C(=O)N[C@@H](C)C(=O)N[C@@H](CC(C)C)C(=O)N[C@@H](C)C(=O)N[C@@H](CCCCN)C(=O)N[C@@H](CCCCN)C(=O)N[C@@H](CS)C(=O)N[C@@H](CC(C)C)C(N)=O`, the ring closure, conversion by HPLC in data set [1] (39-membered ring) was determined as 72%.

`C[C@H](N)C(=O)N[C@@H](CSc1c(F)c(F)c(-c2c3nc(c(-c4c(F)c(F)c(F)c(F)c4F)c4ccc([nH]4)c(-c4c(F)c(F)c(F)c(F)c4F)c4nc(c(-c5c(F)c(F)c(F)c(F)c5F)c5ccc2[nH]5)C=C4)C=C3)c(F)c1F)C(=O)N[C@@H](C)C(=O)N[C@@H](CS)C(=O)NCC(N)=O` [H-Ala-Cys-Ala-Cys-Gly-NH2]: the ring closure, conversion by HPLC in data set [1] (24-membered ring) came to 6%.

For the compound `C[C@H](N)C(=O)N[C@@H](CSc1c(F)c(F)c(-c2c3nc(c(-c4c(F)c(F)c(F)c(F)c4F)c4ccc([nH]4)c(-c4c(F)c(F)c(F)c(F)c4F)c4nc(c(-c5c(F)c(F)c(F)c(F)c5F)c5ccc2[nH]5)C=C4)C=C3)c(F)c1F)C(=O)N[C@@H](C)C(=O)N[C@H](C(=O)NCC(=O)N[C@@H](CO)C(=O)N[C@H](C(=O)N[C@@H](CCC(N)=O)C(=O)N[C@@H](Cc1c[nH]cn1)C(=O)N[C@@H](CCC(N)=O)C(=O)N[C@@H](C)C(=O)N[C@@H](CS)C(=O)NCC(N)=O)[C@@H](C)O)[C@@H](C)O` [H-Ala-Cys-Ala-Thr-Gly-Ser-Thr-Gln-His-Gln-Ala-Cys-Gly-NH2], in data set [1] (48-membered ring), the ring closure, conversion by HPLC is 35%.

On to `C[C@H](N)C(=O)N[C@@H](CSc1c(F)c(F)c(-c2c3nc(c(-c4c(F)c(F)c(F)c(F)c4F)c4ccc([nH]4)c(-c4c(F)c(F)c(F)c(F)c4F)c4nc(c(-c5c(F)c(F)c(F)c(F)c5F)c5ccc2[nH]5)C=C4)C=C3)c(F)c1F)C(=O)N[C@@H](C)C(=O)N[C@H](C(=O)NCC(=O)N[C@@H](CO)C(=O)N[C@H](C(=O)N[C@@H](CCC(N)=O)C(=O)N[C@@H](Cc1c[nH]cn1)C(=O)N[C@@H](CCC(N)=O)C(=O)N[C@@H](CS)C(=O)NCC(N)=O)[C@@H](C)O)[C@@H](C)O` [H-Ala-Cys-Ala-Thr-Gly-Ser-Thr-Gln-His-Gln-Cys-Gly-NH2], for which the ring closure, conversion by HPLC in data set [1] (45-membered ring) was determined as 36%.

`C[C@H](N)C(=O)N[C@@H](CSc1c(F)c(F)c(-c2c3nc(c(-c4c(F)c(F)c(F)c(F)c4F)c4ccc([nH]4)c(-c4c(F)c(F)c(F)c(F)c4F)c4nc(c(-c5c(F)c(F)c(F)c(F)c5F)c5ccc2[nH]5)C=C4)C=C3)c(F)c1F)C(=O)N[C@@H](CS)C(=O)NCC(N)=O` [H-Ala-Cys-Cys-Gly-NH2]: the ring closure, conversion by HPLC in data set [1] (21-membered ring) came out at 0%.

Regarding `C[C@H](N)C(=O)N[C@@H](CSc1c(F)c(F)c(-c2c3nc(c(-c4c(F)c(F)c(F)c(F)c4F)c4ccc([nH]4)c(-c4c(F)c(F)c(F)c(F)c4F)c4nc(c(-c5c(F)c(F)c(F)c(F)c5F)c5ccc2[nH]5)C=C4)C=C3)c(F)c1F)C(=O)N[C@@H](CCC(N)=O)C(=O)N[C@@H](Cc1c[nH]cn1)C(=O)N[C@@H](CCC(N)=O)C(=O)N[C@@H](CS)C(=O)NCC(N)=O` [H-Ala-Cys-Gln-His-Gln-Cys-Gly-NH2], in data set [1] (30-membered ring), the ring closure, conversion by HPLC came to 65% and the ring closure, isolated yield worked out at 39%.

Regarding `C[C@H](N)C(=O)N[C@@H](CSc1c(F)c(F)c(-c2c3nc(c(-c4c(F)c(F)c(F)c(F)c4F)c4ccc([nH]4)c(-c4c(F)c(F)c(F)c(F)c4F)c4nc(c(-c5c(F)c(F)c(F)c(F)c5F)c5ccc2[nH]5)C=C4)C=C3)c(F)c1F)C(=O)N[C@@H](Cc1c[nH]cn1)C(=O)N[C@@H](CS)C(=O)NCC(N)=O` [H-Ala-Cys-His-Cys-Gly-NH2], the ring closure, conversion by HPLC in data set [1] (24-membered ring) turned out to be 43%.

On to `C[C@H](N)C(=O)N[C@@H](CSc1c(F)c(F)c(-c2c3nc(c(-c4c(F)c(F)c(F)c(F)c4F)c4ccc([nH]4)c(-c4c(F)c(F)c(F)c(F)c4F)c4nc(c(-c5c(F)c(F)c(F)c(F)c5F)c5ccc2[nH]5)C=C4)C=C3)c(F)c1F)C(=O)N[C@@H](Cc1c[nH]cn1)C(=O)N[C@@H](CCC(N)=O)C(=O)N[C@@H](CS)C(=O)NCC(N)=O` [H-Ala-Cys-His-Gln-Cys-Gly-NH2], for which, in data set [1] (27-membered ring), the ring closure, conversion by HPLC worked out at 65%.

`C[C@H](N)C(=O)N[C@@H](CSc1c(F)c(F)c(-c2c3nc(c(-c4c(F)c(F)c(F)c(F)c4F)c4ccc([nH]4)c(-c4c(F)c(F)c(F)c(F)c4F)c4nc(c(-c5c(F)c(F)c(F)c(F)c5F)c5ccc2[nH]5)C=C4)C=C3)c(F)c1F)C(=O)N[C@@H](CO)C(=O)N[C@H](C(=O)N[C@@H](CCC(N)=O)C(=O)N[C@@H](Cc1c[nH]cn1)C(=O)N[C@@H](CCC(N)=O)C(=O)N[C@@H](CS)C(=O)NCC(N)=O)[C@@H](C)O` [H-Ala-Cys-Ser-Thr-Gln-His-Gln-Cys-Gly-NH2]: in data set [1] (36-membered ring), the ring closure, conversion by HPLC was 56% and the ring closure, isolated yield stood at 24%.

On to `C[C@H](N)C(=O)N[C@@H](CSc1c(F)c(F)c(-c2c3nc(c(-c4c(F)c(F)c(F)c(F)c4F)c4ccc([nH]4)c(-c4c(F)c(F)c(F)c(F)c4F)c4nc(c(-c5c(F)c(F)c(F)c(F)c5F)c5ccc2[nH]5)C=C4)C=C3)c(F)c1F)C(=O)N[C@H](C(=O)N[C@@H](CCC(N)=O)C(=O)N[C@@H](Cc1c[nH]cn1)C(=O)N[C@@H](CCC(N)=O)C(=O)N[C@@H](CS)C(=O)NCC(N)=O)[C@@H](C)O` [H-Ala-Cys-Thr-Gln-His-Gln-Cys-Gly-NH2], for which, in data set [1] (33-membered ring), the ring closure, conversion by HPLC was 65% and the ring closure, isolated yield amounted to 25%.

`C[C@H](N)C(=O)N[C@@H](CSc1c(F)c(F)c(-c2c3nc(c(-c4c(F)c(F)c(F)c(F)c4F)c4ccc([nH]4)c(-c4c(F)c(F)c(F)c(F)c4F)c4nc(c(-c5c(F)c(F)c(F)c(F)c5F)c5ccc2[nH]5)C=C4)C=C3)c(F)c1F)C(=O)N[C@H](C(=O)NCC(=O)N[C@@H](CO)C(=O)N[C@H](C(=O)N[C@@H](CCC(N)=O)C(=O)N[C@@H](Cc1c[nH]cn1)C(=O)N[C@@H](CCC(N)=O)C(=O)N[C@@H](CS)C(=O)NCC(N)=O)[C@@H](C)O)[C@@H](C)O` [H-Ala-Cys-Thr-Gly-Ser-Thr-Gln-His-Gln-Cys-Gly-NH2]: in data set [1] (42-membered ring), the ring closure, conversion by HPLC turned out to be 46% and the ring closure, isolated yield stood at 18%.

With `C[C@H](N)C(=O)N[C@@H](CSc1c(F)c(F)c(-c2c3nc(c(-c4c(F)c(F)c(F)c(F)c4F)c4ccc([nH]4)c(-c4c(F)c(F)c(F)c(F)c4F)c4nc(c(-c5c(F)c(F)c(F)c(F)c5F)c5ccc2[nH]5)C=C4)C=C3)c(F)c1F)C(=O)N[C@H](C(=O)N[C@@H](Cc1c[nH]cn1)C(=O)NCC(=O)N[C@@H](CCC(N)=O)C(=O)N[C@H](C(=O)N[C@@H](CCC(N)=O)C(=O)N[C@@H](CO)C(=O)N[C@@H](CS)C(=O)NCC(N)=O)[C@@H](C)O)[C@@H](C)O` [H-Ala-Cys-Thr-His-Gly-Gln-Thr-Gln-Ser-Cys-Gly-NH2], in data set [1] (42-membered ring), the ring closure, conversion by HPLC was found to be 47% and the ring closure, isolated yield was 10%.

`C[C@H](N)C(=O)N[C@@H](CSc1c(F)c(F)c(-c2c3nc(c(-c4c(F)c(F)c(F)c(F)c4F)c4ccc([nH]4)c(-c4c(F)c(F)c(F)c(F)c4F)c4nc(c(-c5c(F)c(F)c(F)c(F)c5F)c5ccc2[nH]5)C=C4)C=C3)c(F)c1F)C(=O)N[C@H](C(=O)N[C@@H](CO)C(=O)N[C@H](C(=O)N[C@@H](CCC(N)=O)C(=O)N[C@@H](Cc1c[nH]cn1)C(=O)N[C@@H](CCC(N)=O)C(=O)N[C@@H](CS)C(=O)NCC(N)=O)[C@@H](C)O)[C@@H](C)O` [H-Ala-Cys-Thr-Ser-Thr-Gln-His-Gln-Cys-Gly-NH2]: the ring closure, conversion by HPLC in data set [1] (39-membered ring) was 50%.

As for `CC[C@H](C)[C@H](NC(=O)[C@H](Cc1ccc(O)cc1)NC(=O)CNC(=O)[C@@H](NC(=O)[C@@H](NC(=O)[C@H](CSc1c(F)c(F)c(-c2c3nc(c(-c4c(F)c(F)c(F)c(F)c4F)c4ccc([nH]4)c(-c4c(F)c(F)c(F)c(F)c4F)c4nc(c(-c5c(F)c(F)c(F)c(F)c5F)c5ccc2[nH]5)C=C4)C=C3)c(F)c1F)NC(=O)[C@@H](N)CC(N)=O)C(C)C)C(C)C)C(=O)NCC(=O)N[C@@H](CCC(=O)O)C(=O)N[C@@H](CCCNC(=N)N)C(=O)N[C@@H](CS)C(=O)N[C@@H](CCC(N)=O)C(N)=O` [H-Asn-Cys-Val-Val-Gly-Tyr-Ile-Gly-Glu-Arg-Cys-Gln-NH2], in data set [1] (45-membered ring), the ring closure, conversion by HPLC came out at 36%.

In data set [2], `CC(C)C[C@H](NC(=O)[C@H](C)NC(=O)[C@@H](NC(=O)[C@H](CCC(=O)O)NC(=O)[C@@H]1CCCN1C(=O)[C@H](C)NC(=O)[C@H](CCCCN)NC(=O)[C@@H](N)CSc1c(F)c(F)c(-c2c3nc(c(-c4c(F)c(F)c(F)c(F)c4F)c4ccc([nH]4)c(-c4c(F)c(F)c(F)c(F)c4F)c4nc(c(-c5c(F)c(F)c(F)c(F)c5F)c5ccc2[nH]5)C=C4)C=C3)c(F)c1F)[C@@H](C)O)C(=O)N[C@@H](CS)C(N)=O` [H-Cys-Lys-Ala-Pro-Glu-Thr-Ala-Leu-Cys-NH2] came in with a ring closure, conversion by HPLC of 44%.
